Like-named read-outs stand apart in the source and are kept apart here.
What was measured:
Venturia inaequalis = experiment: Prophylactic leaf treatment of apples in open field test against Venturia inaequalis; assay type: in vivo; conditions: 3 weeks
Piricularia oryzae = assay type: in vivo; conditions: 5 days
Tilletia caries = experiment: Treatment of oat seeds infested with Tilletia caries (spore germination); assay type: in vivo
Pythium ultimum = experiment: Threshold concentration test for use of the compounds against Pythium ultimum (infested soil, garden peas); assay type: in vivo; set-up: key to root evaluation (1-4): 4: white roots without fungous necrosis; 3: white roots, minor fungous necrosis; 2: brown roots, already more pronounced fungous necrosis; 1: heavy fungous necrosis, roots rotted; conditions: for root evaluation (1-4): 3 weeks; for number of sound peas: 20 grains per dish, 3 weeks at 20-24° C.
Outline: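 Pulverulent agents at 20% concentration mixed evenly into soil heavily infested with Pythium ultimum, then garden peas ('Wunder von Kelvedon', 20 per dish) sown at once. After three weeks at 20–24 °C in a hothouse, sound peas counted and roots scored on a 1–4 scale.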

Plasmopara viticola = experiment: Prophylactic leaf treatment of grapevines in the hothouse against Plasmopara viticola; assay type: in vivo
Protocol: Effects of prophylactic leaf treatment of grapevines in the hothouse against Plasmopara viticola
Young grapevine plants having from 5 to 8 leaves were sprayed dripping wet with the concentrations of active agents stated in the table below. After drying of the spray deposit the leaves were sprayed with an aqueous suspension of sporangia of the fungus (about 20,000 per ml); the spraying was applied to the bottom side of the leaves. The plants were then immediately incubated in a hothouse at a temperature of 22° to 24° C. and at maximum water saturation in the atmosphere. Beginning with the second day the humidity of the air was reduced for 3 to 4 days to normal level (30 to 70% saturation) and was then maintained for another day on the level of full saturation. Subsequently, the percentage portion of the fungus infested surface of each leaf was noted and the average per treatment was calculated in order to determine the fungicidal activity. This was done on the basis of the following formula: [formula]
The active compounds were applied in the form of a 20% concentration spray powder.

Fusarium avenaceum = experiment: Threshold concentration test in case of Fusarium avenaceum (infested soil, garden peas); assay type: in vivo; conditions: for number of sound peas: 20 grains per dish, 18 days at 20-24° C.; for root evaluation (1-4): 18 days
Outline: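 Soil heavily infested with Fusarium avenaceum was mixed uniformly with a 20% powder formulation of active agent, then sown immediately with 20 garden pea seeds ('Wunder von Kelvedon') per dish. After 18 days in a greenhouse at 20° to 24° C., sound plants were counted and roots scored on a 1–4 scale.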

[1] = tested on: Helminthosporium gramineum; experiment: Seed treatment in open field tests for infestation by Helminthosporium gramineum (barley); assay type: in vivo
Protocol: Seed treatment in open field tests for infestation by Helminthosporium gramineum
The active agents were used in the form of pulverulent compositions. After about 8 months in case of winter barley and after about 3 months in case of summer barley the infested plants were counted and the activity was calculated by the formula [formula]

Helminthosporium gram = conditions: about 5 weeks
Protocol: Treatment of barley seeds infested with Helminthosporium gram
After emergence, the plants were subjected to illumination for 12 hours per day. After about 5 weeks the infested plants were counted and the total number of plants for each test were also counted. The active agents tested were used as pulverulent compositions.

[2] = concentration of active agent 0.005 (in gram)
[3] = concentration of active agent 0.025 (in gram)
[4] = concentration of active agent 0.1 (percentages)
[5] = concentration of active agent 0.001 (unit not given)
[6] = concentration of active agent 0.005 (unit not given)
[7] = concentration of active agent 0.025 (unit not given)
[8] = summer barley, 50 g active agent/100 kg barley, about 3 months

| SMILES | % activity (Venturia inaequalis; [2]) [%] | % activity (Venturia inaequalis; [3]) [%] | % activity (Piricularia oryzae; [4]) [%] | % activity (Tilletia caries; 20 g active agent per 100 kg) [%] | % activity (Tilletia caries; 50 g active agent per 100 kg) [%] | root evaluation (1-4) (Pythium ultimum; 20 mg/l soil) | number of sound peas (Pythium ultimum; 20 mg/l soil) | root evaluation (1-4) (Pythium ultimum; 40 mg/l soil) | number of sound peas (Pythium ultimum; 40 mg/l soil) | root evaluation (1-4) (Pythium ultimum; 80 mg/l soil) | number of sound peas (Pythium ultimum; 80 mg/l soil) | % activity (Plasmopara viticola; [6]) [%] | % activity (Plasmopara viticola; [7]) [%] | % activity (Tilletia caries; 10 g active agent per 100 kg) [%] | % activity [1, 8] [%] | % activity (Helminthosporium gram; 20 g active agent per 100 kg) [%] | % activity (Helminthosporium gram; 50 g active agent per 100 kg) [%] | other results |
| --- | --- | --- | --- | --- | --- | --- | --- | --- | --- | --- | --- | --- | --- | --- | --- | --- | --- | --- |
| N#CC1=C(C#N)C(=O)c2cc3ccccc3cc2C1=O [2,3-dinitrilo-1,4-anthraquinone, reference compound] | 86 | 94 |  |  |  |  |  |  |  |  |  |  |  |  |  |  |  |  |
| CCCC[S+]([O-])c1nnc(C(N)=O)s1 (centres unmarked) [5-butylsulfinyl-1,3,4-thiadiazole-2-carboxamide] |  |  | 93 | 95 | 100 | 1 | 10 | 4 | 15 | 4 | 19 | 99.8 | 100 |  |  |  |  | % activity (Plasmopara viticola; [5]): 75% |
| CC(C)CS(=O)(=O)c1nnc(C#N)s1 [5-isobutylsulfonyl-1,3,4-thiadiazole-2-carbonitrile] |  |  | 100 | 93 | 100 |  |  |  |  |  |  | 87 | 99 |  |  |  |  | number of sound peas (Fusarium avenaceum; 25 mg/l soil): 19; root evaluation (1-4) (Fusarium avenaceum; 25 mg/l soil): 4; number of sound peas (Fusarium avenaceum; 50 mg/l soil): 20; root evaluation (1-4) (Fusarium avenaceum; 50 mg/l soil): 4; number of sound peas (Fusarium avenaceum; 100 mg/l soil): 19; root evaluation (1-4) (Fusarium avenaceum; 100 mg/l soil): 4; % activity (Plasmopara viticola; [5]): 79% |
| CC(C)S(=O)(=O)c1nnc(C(=O)NCC2CCCCC2)s1 [5-isopropylsulfonyl-1,3,4-thiadiazole-2-carboxylic acid-cyclohexylmethylamide] |  |  | 98 | 92 | 97 |  |  |  |  |  |  | 92 | 97 |  |  |  |  |  |
| CCCCNC(=O)c1nnc([S+](C)[O-])s1 (centres unmarked) [5-methylsulfinyl-1,3,4-thiadiazole-2-carboxylic acid-butylamide] | 86 | 99 |  | 99.8 | 100 | 2 | 12 | 4 | 15 | 4 | 17 |  | 93 | 99 | 100 | 97 | 100 | % activity (Helminthosporium gram; 10 g active agent per 100 kg): 67% |
| CC(C)NC(=O)c1nnc([S+](C)[O-])s1 (centres unmarked) [5-methylsulfinyl-1,3,4-thiadiazole-2-carboxylic acid-isopropylamide] | 71 | 90 | 90 | 100 | 100 | 4 | 19 | 4 | 19 | 4 | 20 |  | 90 |  |  | 96 | 100 |  |
| CCCNC(=O)c1nnc([S+](C)[O-])s1 (centres unmarked) [5-methylsulfinyl-1,3,4-thiadiazole-2-carboxylic acid-propylamide] | 62 | 99.7 |  | 100 | 100 | 4 | 14 | 4 | 15 | 4 | 15 | 75 | 99 | 99 | 97 | 98 | 100 | % activity (Helminthosporium gram; 10 g active agent per 100 kg): 75% |
| CN(C)C(=O)c1nnc(S(C)(=O)=O)s1 [5-methylsulfonyl-1,3,4-thiadiazole-2-carboxylic acid-dimethylamide] |  |  | 98 |  |  | 4 | 18 | 4 | 20 | 4 | 18 |  |  |  |  | 87 | 98 | % activity (Piricularia oryzae; concentration of active agent 0.02 (percentages)): 91%; % activity ([1]; winter barley, 50 g active agent/100 kg barley, about 8 months): 98%; % activity ([1]; winter barley, 100 g active agent/100 kg barley, about 8 months): 100% |
| CCNC(=O)c1nnc(S(C)(=O)=O)s1 [5-methylsulfonyl-1,3,4-thiadiazole-2-carboxylic acid-ethylamide] | 81 | 97 | 90 | 99.2 | 98 | 4 | 15 | 4 | 15 | 4 | 15 | 81 | 97 | 99.2 | 100 |  | 93 |  |
| CC(C)NC(=O)c1nnc(S(C)(=O)=O)s1 [5-methylsulfonyl-1,3,4-thiadiazole-2-carboxylic acid-isopropylamide] | 85 | 100 | 90 | 100 | 100 | 4 | 15 | 4 | 18 | 4 | 15 | 76 | 96 | 100 | 100 |  | 90 |  |
| CCCS(=O)(=O)c1nnc(C(=O)N(C)C)s1 [5-propylsulfonyl-1,3,4-thiadiazole-2-carboxylic acid-dimethylamide] |  |  | 93 | 100 | 100 | 2 | 17 | 4 | 20 | 4 | 19 | 75 | 90 |  |  |  | 93 |  |

From patent US4281121A, “1,3,4-Thiadiazole-2-carboxylic acid derivatives, process for making the same and fungicidal and nematocidal compositions containing same” (Schering Aktiengesellschaft, priority 1978, dated 1981)
